Data from patent US20110124678A1, “TREATMENT WITH ALPHA 7-SELECTIVE LIGANDS” (Targacept, Inc., priority 2007, published 2011).
“Also recorded” adds a separate entry of the source.

Assays:
[1] = molecular target: T1, human α7 nicotinic receptor (Homo sapiens, UniProt P36544); assay: electrophysiology functional assay in Xenopus laevis oocytes; format: cell-based; settings: Xenopus laevis oocytes transiently expressing human α7 nicotinic receptor
T1 construct: expressed in transfected cells; host or cells: Xenopus laevis oocytes

db/db mice [2] = assay: metabolic phenotyping of obese db/db mice (PTP1B wild type or knockout) treated with α7 agonist; format: in vivo; settings: for Glucose Tolerance Test (GTT): fat db/db PTP-1B WT mice; for plasma TNFα / plasma blood glucose (BG) / plasma glycosylated hemoglobin (Hb1ac) / plasma triglycerides (TG) / body mass / food consumption: fat db/db mice; for plasma triglycerides (TG): PTP-1B wild type; for body mass / food consumption: increase vs lean; for weight gain: obese db− mice, seven weeks of treatment; for food intake decrease induced by the α7 agonist / treatment-induced decrease in plasma glucose: antagonist or inhibitor given with α7 agonist; for body weight gain / weight loss induced by the α7 agonist: antagonist or inhibitor given with α7 agonist (MLA 3 mg/kg gavage; AG-490 1 mg/kg IP)
Description: Body Weight Gain and Food Intake. Several protein tyrosine phosphatases (PTPases) such as PTP1B, LAR, SHP-2 and PTEN have been implicated in the development of insulin resistance.
α7 agonist on Obesity. Animal Models: Parental strains of mice used in these studies were the leptin receptor deficient db/db mice on a C57BL6 background obtained from Jackson Laboratories and PTP1B-null mice on a mixed C57BL6/Balb C background from Dr. Michel Tremblay at the Cancer Institute at McGill University in Montreal, Canada. Because obese db/db mice are infertile, mice were generated as dual heterozygotes, heterozygous for both the mutant leptin receptor and the deleted PTP1B. Dual heterozygotes were interbred, producing 1:4 obese mice and 1:4 PTP-1B null mice. In this breeding configuration 1:16 were dual KO mice. In the fourth generation, mice heterozygous for both genes were bred to PTP-1B null mice heterozygous for the mutant db allele. In this breeding configuration 1:4 mice were obese and 1:8 were dual KO mice. For reasons of parsimony, heterozygotes were preferred to wild-types over controls. Dual heterozygous littermates were used as lean controls and littermates heterozygous for db were used as lean PTP1B KO controls.
Mouse genotyping: At 3 weeks of age, DNA was obtained by tail clip. The genomic DNA from tail clip was used to screen for the presence of the mutant leptin receptor and deletion cassette of PTP-1B using the Polymerase Chain Reaction. Specific genotypes were determining by resolving PCR products with agarose gel electrophoresis. Deletion of PTP-1B was verified by Western analysis using an anti-PTP-1B antibody from Upstate Biotechnology.
In selected cohorts, the α7 antagonist MLA was also given via gavage, concurrently, at 3 mg/kg daily. The JAK2 kinase inhibitor (AG-490) was administered intraperitoneally (IP) at 1 mg/kg daily. Fasting glucose was measured once a week after food withdrawal, with a Precision XL glucometer using tail vein bleeding. HbA1c levels were also measured from these samples with the A1C kit from Metrika, Inc. To assess glucose tolerance, the mice were anesthetized with 2% isoflurane and the left carotid artery and jugular vein cannulated after an overnight fast. A 10 mg bolus of glucose was injected intravenously (iv) via the jugular vein and blood glucose measured every 5 minutes for 40 minutes in a drop of blood from the carotid line. For measurements of blood plasma analytes, a separate group of fasted mice were anesthetized by isoflurane in a rapid induction chamber and swiftly decapitated. Blood was collected in heparin and rapidly centrifuged at 4° C. to remove cells and to obtain plasma, and the samples were frozen for later analyses. Plasma TNF-α concentrations were determined using ELISA assay kits from eBioscience and plasma triglyceride levels were determined using the L-Type TG H test (Wako Diagnostics), an in vitro assay for the quantitative determination of triglycerides in serum or plasma. All data are expressed as mean and SEM. Differences among all groups were compared by One Way ANOVA.

db/db mice [3] = assay: simvastatin and Compound A in db/db mice, metabolic phenotyping; format: in vivo; settings: fat db/db mice, statin study
Description: Animal Models and Metabolic Phenotyping: […] Growth rates of mice were generated by measuring body weight twice weekly for 10 weeks. Daily food intake was measured in mice metabolic cages obtained from Fisher. To assess glucose tolerance, mice were anesthetized with 2% isoflurane and the left carotid artery and jugular vein cannulated after an overnite fast. Fasting blood glucose was assessed as the initial two measurements in the anesthetized mice. A second measurement was used to determine HbA1c levels using the […] kit from Metrika Inc. A 10 mg bolus of glucose was injected into each mouse and blood glucose measure by a drop of blood from the carotid line every 5 minutes for 40 minutes. Glucose was measured with a Precision XL glucometer. At the end of the experiment mice were euthanized by isoflurane overdose. In a second group of mice, fasted mice were anesthetized by isofluorance in a rapid induction chamber and swiftly decapitated. Trunk blood was collected in heparin and rapidly centrifuged to remove blood cells and obtain plasma. Samples were then collected for analyses. Plasma cholesterol, free fatty acids and triglycerides were determined using colorimetric assays from Wako Chemical while plasma TNFα concentration was determined using ELISA assay kits from eBioscience.

[4] = difference between genotypes under treatment
[5] = obese mice, antagonist given with α7 agonist

T1 sequence (P36544 23-502): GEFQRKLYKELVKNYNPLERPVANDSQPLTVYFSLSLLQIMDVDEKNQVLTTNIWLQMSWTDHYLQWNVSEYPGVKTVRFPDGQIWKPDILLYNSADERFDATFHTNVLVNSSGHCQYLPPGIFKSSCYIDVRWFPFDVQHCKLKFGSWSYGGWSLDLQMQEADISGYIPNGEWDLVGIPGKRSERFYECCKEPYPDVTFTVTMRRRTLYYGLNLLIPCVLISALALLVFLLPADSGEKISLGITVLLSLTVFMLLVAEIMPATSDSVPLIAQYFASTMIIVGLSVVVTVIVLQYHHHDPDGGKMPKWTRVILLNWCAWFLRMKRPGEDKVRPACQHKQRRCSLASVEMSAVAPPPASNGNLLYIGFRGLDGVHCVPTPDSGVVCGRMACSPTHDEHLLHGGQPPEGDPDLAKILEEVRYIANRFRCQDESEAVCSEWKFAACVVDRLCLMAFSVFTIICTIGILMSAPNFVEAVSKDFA

With O=C(N[C@@H]1C2CCN(CC2)[C@H]1Cc1cccnc1)c1cc2ccccc2o1 (single isomer, unassigned) [Compound C] the Emax [1] was > 50%, the “body mass, fat wild type vs fat PTP-1B KO” value (db/db mice [2]; [4]) was “no significant difference” and the “food consumption, fat wild type vs fat PTP-1B KO” value (db/db mice [2]; [4]) was “no significant difference”. The “plasma blood glucose, fat wild type vs fat PTP-1B KO” value (db/db mice [2]; [4]) was “no significant difference”, the “Glucose Tolerance Test (GTT)” value (db/db mice [2]) was “normalize insulin resistance glucose tolerance test; also recorded: significant increase in deposition” and the “plasma TNFα” value (db/db mice [2]) was “reduce pro-inflammatory cytokines; also recorded: significantly inhibited”. The “plasma blood glucose (BG)” value (db/db mice [2]) was “normalize glucose levels; also recorded: significantly inhibited”, the “plasma glycosylated hemoglobin (Hb1ac)” value (db/db mice [2]) was “decrease glycated hemoglobin; also recorded: significantly inhibited” and the “plasma triglycerides (TG)” value (db/db mice [2]) was “reduce triglycerides; also recorded: significantly inhibited”. For the same molecule, the body mass (db/db mice [2]) was “significantly inhibited”, the food consumption (db/db mice [2]) was “significantly inhibited” and the weight gain (db/db mice [2]) was “reduce weight gain”.
For N#C/C(=C/c1ccc(O)c(O)c1)C(=O)NCc1ccccc1 [AG-490, reference compound], the “food intake decrease induced by the α7 agonist” value (db/db mice [2]; obese mice) was “significantly inhibited; also recorded: partially inhibits effects of Compound A”, the “treatment-induced decrease in plasma glucose” value (db/db mice [2]; obese mice) was “significantly prevented” and the “body weight gain / weight loss induced by the α7 agonist” value (db/db mice [2]; obese mice) was “significantly inhibited”.
With Cc1ccc(C(=O)N[C@@H]2C3CCN(CC3)[C@H]2Cc2cccnc2)s1 [Compound A, 5-methyl-N-[(2S,3R)-2-(pyridin-3-ylmethyl)-1-azabicyclo[2.2.2]oct-3-yl]thiophene-2-carboxamide] the “Glucose Tolerance Test (GTT)” value (db/db mice [2]) was “normalize insulin resistance glucose tolerance test”, the “plasma TNFα” value (db/db mice [2]) was “reduce pro-inflammatory cytokines” and the “plasma blood glucose (BG)” value (db/db mice [2]) was “normalize glucose levels”. For the same molecule, the “plasma glycosylated hemoglobin (Hb1ac)” value (db/db mice [2]) was “decrease glycated hemoglobin”, the “plasma triglycerides (TG)” value (db/db mice [2]) was “reduce triglycerides” and the weight gain (db/db mice [2]) was “reduce weight gain”. The “% glycated hemoglobin (% Hb1ac)” value (db/db mice [3]) was “significantly inhibited”, the body mass (db/db mice [3]) was “significantly inhibited” and the food consumption (db/db mice [3]) was “significantly inhibited”. The “plasma TNFα” value (db/db mice [3]) was “significantly inhibited”, the “plasma blood glucose (BG)” value (db/db mice [3]) was “significantly inhibited” and the “plasma cholesterol (Chol)” value (db/db mice [3]) was “significantly inhibited”. For the same molecule, the “plasma triglycerides (TG)” value (db/db mice [3]) was “significantly inhibited”.
With O=C(N[C@@H]1C2CCN(CC2)[C@H]1Cc1cccnc1)c1ccc(-c2ccccn2)s1 [Compound B, (2S,3R)—N-(2-((3-pyridinyl)methyl)-1-azabicyclo[2.2.2]oct-3-yl)-5-(2-pyridinyl)thiophene-2-carboxamide] the “Glucose Tolerance Test (GTT)” value (db/db mice [2]) was “normalize insulin resistance glucose tolerance test”, the “plasma TNFα” value (db/db mice [2]) was “reduce pro-inflammatory cytokines; also recorded: significantly inhibited” and the “plasma blood glucose (BG)” value (db/db mice [2]) was “normalize glucose levels; also recorded: significantly inhibited”. The “plasma glycosylated hemoglobin (Hb1ac)” value (db/db mice [2]) was “decrease glycated hemoglobin; also recorded: significantly inhibited”, the “plasma triglycerides (TG)” value (db/db mice [2]) was “reduce triglycerides; also recorded: significantly inhibited” and the body mass (db/db mice [2]) was “significantly inhibited”. For the same molecule, the food consumption (db/db mice [2]) was “significantly inhibited” and the weight gain (db/db mice [2]) was “reduce weight gain”.
For CCN1C[C@]2(COC(=O)c3ccccc3N3C(=O)C[C@H](C)C3=O)CC[C@H](OC)[C@@]34[C@@H]5C[C@H]6[C@H](OC)[C@@H]5[C@](O)(C[C@@H]6OC)[C@](O)([C@@H](OC)[C@H]23)[C@@H]14 [MLA, reference compound], the “decrease of plasma TNF-α by the α7 agonist” value (db/db mice [2]; [5]) was “blocked”, the “increased insulin sensitivity induced by the α7 agonist” value (db/db mice [2]; [5]) was “abrogated; also recorded: suppressed” and the “normalization of triglycerides by the α7 agonist” value (db/db mice [2]; [5]) was “blocked”. The “food intake decrease induced by the α7 agonist” value (db/db mice [2]; obese mice) was “no significant differences”, the “treatment-induced decrease in plasma glucose” value (db/db mice [2]; obese mice) was “no significant decrease in plasma glucose” and the “body weight gain / weight loss induced by the α7 agonist” value (db/db mice [2]; obese mice) was “no significant differences”.
